The subject of data set [1] is panel of human cancer cell lines (Capan-1, HCT-116, LN-229, NCI-H460, DND-41, HL-60, K-562, Z-138).
Experimental: (§1) Human cancer cell lines used in this study included Capan-1, HCT-116, NCI-H460, LN-229, HL-60, K-562, and Z-138, all obtained from the American Type Culture Collection (ATCC). The DND-41 cell line was sourced from the Deutsche Sammlung von Mikroorganismen und Zellkulturen (DSMZ). All cell lines were cultured in media obtained from Gibco Life Technologies, supplemented with 10% fetal bovine serum (HyClone, Logan, UT, USA). Adherent cell lines were seeded in 384-well tissue culture plates at the following densities: Capan-1 at 500 cells/well, and HCT-116, NCI-H460, and LN-229 at 1500 cells/well. After overnight incubation to allow cell attachment, cells were treated with a seven-point serial dilution of test compounds, ranging from 100 µM to 0.006 µM. Suspension cell lines were seeded as follows: HL-60, K-562, and Z-138 at 2500 cells/well, and DND-41 at 5500 cells/well, using the same compound concentration range. All treatments were performed in 384-well plates under identical conditions. Following 72 h of compound exposure, cell viability was assessed using the CellTiter 96® AQueous One Solution Cell Proliferation Assay (MTS, Promega, Leiden, The Netherlands), following the manufacturer’s protocol. The final assay mixture contained 333 µg/mL MTS and 25 µM phenazine methosulfate (PMS). Absorbance was measured at 490 nm using a SpectraMax Plus 384 microplate reader (Molecular Devices, San Jose, CA, USA). Optical density values were used to calculate the half-maximal inhibitory concentration (IC50) for each compound. All compounds were tested in a minimum of two independent biological replicates to ensure reproducibility.
Data set [2] deals with HL-60 (acute myeloid leukemia). As to the kind of experiment: Antitumoral assay (MTS, 72 h), HL-60. As to conditions: Homo sapiens, HL-60, 72 h, read-out: Cytotoxicity IC50, HL-60.
Experimental: (§2) Human cancer cell lines used in this study included Capan-1, HCT-116, NCI-H460, LN-229, HL-60, K-562, and Z-138, all obtained from the American Type Culture Collection (ATCC). The DND-41 cell line was sourced from the Deutsche Sammlung von Mikroorganismen und Zellkulturen (DSMZ). All cell lines were cultured in media obtained from Gibco Life Technologies, supplemented with 10% fetal bovine serum (HyClone, Logan, UT, USA). […] After overnight incubation to allow cell attachment, cells were treated with a seven-point serial dilution of test compounds, ranging from 100 µM to 0.006 µM. Suspension cell lines were seeded as follows: HL-60, K-562, and Z-138 at 2500 cells/well, and DND-41 at 5500 cells/well, using the same compound concentration range. All treatments were performed in 384-well plates under identical conditions. Following 72 h of compound exposure, cell viability was assessed using the CellTiter 96® AQueous One Solution Cell Proliferation Assay (MTS, Promega, Leiden, The Netherlands), following the manufacturer’s protocol. The final assay mixture contained 333 µg/mL MTS and 25 µM phenazine methosulfate (PMS). Absorbance was measured at 490 nm using a SpectraMax Plus 384 microplate reader (Molecular Devices, San Jose, CA, USA). Optical density values were used to calculate the half-maximal inhibitory concentration (IC50) for each compound. All compounds were tested in a minimum of two independent biological replicates to ensure reproducibility.
The subject of data set [3] is K-562 (chronic myeloid leukemia). As to the kind of experiment: Antitumoral assay (MTS, 72 h), K-562. As to conditions: Homo sapiens, K562, 72 h, read-out: Cytotoxicity IC50, K562.
Experimental: as §2
Data set [4] concerns Z-138 (non-Hodgkin's lymphoma). As to the kind of experiment: Antitumoral assay (MTS, 72 h), Z-138. The conditions noted are these: Homo sapiens, Z-138, 72 h, read-out: Cytotoxicity IC50, Z138.
Experimental: as §2
For data set [5], the system named is LN-229 (glioblastoma). The experiment in a line: Antitumoral assay (MTS, 72 h), LN-229. The conditions noted are these: Homo sapiens, LN-229, 72 h, read-out: Cytotoxicity IC50, LN229.
Experimental: as §1
For data set [6], the system named is DND-41 (acute lymphoblastic leukemia). As to the kind of experiment: Antitumoral assay (MTS, 72 h), DND-41. As to conditions: Homo sapiens, DND41, 72 h, read-out: Cytotoxicity IC50, DND-41.
Experimental: as §2
Data set [7] relates to Capan-1 (pancreatic adenocarcinoma). The experiment in a line: Antitumoral assay (MTS, 72 h), Capan-1. As to conditions: Homo sapiens, CAPAN-1, 72 h, read-out: Cytotoxicity IC50, Capan-1.
Experimental: as §1
For data set [8], the system named is HCT-116 (colorectal carcinoma). As to the kind of experiment: Antitumoral assay (MTS, 72 h), HCT-116. As to conditions: Homo sapiens, HCT-116, 72 h, read-out: Cytotoxicity IC50, HCT-116.
Experimental: as §1
The subject of data set [9] is NCI-H460 (lung carcinoma). The experiment in a line: Antitumoral assay (MTS, 72 h), NCI-H460. As to conditions: Homo sapiens, NCI-H460, 72 h, read-out: Cytotoxicity IC50, NCl-H460.
Experimental: as §1
Data set [10] deals with panel of human cancer cell lines (Capan-1, HCT-116, LN-229, NCI-H460, DND-41, HL-60, K-562, Z-138). As to the kind of experiment: Antitumoral evaluation across the panel of solid and hematological cancer cell lines. The conditions noted are these: 8 cancer cell lines, 72 h, MTS.
Experimental: as §1
Data set [11] concerns peripheral blood mononuclear cells (PBMCs). The experiment in a line: Cell viability of PBMCs (MTS, 72 h). Type of data set: cell-based, Human. The conditions noted are these: 72 h exposure, duplicate. As to the method: A buffy coat preparation sourced from a healthy donor was acquired from the Blood Transfusion Center in Leuven, Belgium. Peripheral blood mononuclear cells (PBMCs) were separated using density gradient centrifugation over Lymphoprep (density: 1.077 g/mL) from Nycomed. These cells were then cultured in cell culture medium (RPMI, Gibco, Waltham, MA, USA) supplemented with 10% FBS. The PBMCs were seeded at a density of 28,000 cells per well in 384-well tissue culture plates containing the test compounds at concentrations ranging from 50 µM to 3.2 nM (for compounds 3–11 and IMNA) and from 10 µM to 0.6 nM (for etoposide). Following a 72 h incubation period, cell viability was assessed using the MTS cell viability assay. Each compound was evaluated in duplicate.

SMILES strings stand for the structures. Like-named read-outs stand apart in the source and are kept apart here.

The source of these data is PMC12692795, “Design and Synthesis of Structurally Modified Analogs of 24Z-Isomasticadienonic Acid with Enhanced Anti-Proliferative Activity” (Molecules, 2025).

The IC50 is the concentration that gives 50% inhibition. For the compound `C/C(=C/CC[C@H](C)[C@@H]1CC[C@]2(C)C3=C(CC[C@@]12C)[C@@]1(C)CC(Br)C(=O)C(C)(C)C1CC3)C(=O)O` (mixture of isomers) [Compound 4, 2-Bromo-3-oxotirucalla-8,24Z-dien-26-oic Acid], the “Cytotoxic / antiproliferative profile across the cancer cell line panel (in words)” value in [1] is recorded as “intermediate activity across multiple cell lines”. Further, the IC50 in data set [2] was 14.7 ± 3.3 µM; in [3], greater than 50 µM; in data set [4], greater than 50 µM; in data set [5] it was 28.5 ± 5.3 µM; in [6] it was 20.5 ± 3.9 µM; in data set [7] it was 9.4 ± 1.5 µM. The IC50 was determined as 22 ± 0.8 µM in [8] and 25.1 ± 1.9 µM in data set [9].
For `C/C(=C/CC[C@H](C)[C@@H]1CC[C@]2(C)C3=C(CC[C@@]12C)[C@@]1(C)CC(SC#N)C(=O)C(C)(C)C1CC3)C(=O)O` (mixture of isomers) [Compound 6, 2-Thiocyanate-3-oxotirucalla-8,24Z-dien-26-oic Acid], the “Cytotoxic / antiproliferative profile across the cancer cell line panel (in words)” value in [1] is on record as “broader antiproliferative activity”. The IC50 in [2] was 15 ± 1.2 µM; in data set [3], 35 ± 3.9 µM; in data set [4], 17.9 ± 0.4 µM; in [5] it was 23.3 ± 2.9 µM; in data set [6] it was 18.5 ± 0.7 µM; in [7], 7.4 ± 1 µM. Further, the half-inhibitory concentration (IC50) in [8] came to 24.3 ± 1.4 µM; in [9], 21.3 ± 2.3 µM.
In the case of `C/C(=C/CC[C@H](C)[C@@H]1CC[C@]2(C)C3=C(CC[C@@]12C)[C@@]1(C)Cc2cnoc2C(C)(C)[C@@H]1CC3)C(=O)O` [Compound 3, (S,Z)-2-Methyl-6-((1S,3aS,5aR,10aS,12aS)-3a,6,6,10a,12a-pentamethyl-2,3,3a,4,5,5a,6,10,10a,11,12,12a-dodecahydro-1H-cyclopenta[7,8]phenanthro[3,2-d]isoxazol-1-yl)hept-2-enoic Acid], the “Cytotoxic / antiproliferative profile across the cancer cell line panel (in words)” value in data set [1] is “selective cytotoxicity toward Capan-1”. Besides, the 50% inhibitory concentration (IC50) was greater than 50 µM in data set [2]; greater than 50 µM in [3]; greater than 50 µM in data set [4]; greater than 50 µM in data set [5]; greater than 50 µM in data set [6]; 6.7 ± 0.4 µM in data set [7]. Also, the IC50 in [8] and in [9] was greater than 50 µM throughout.
`C/C(=C/CC[C@H](C)[C@@H]1CC[C@]2(C)C3=C(CC[C@@]12C)[C@@]1(C)Cc2sc(N)nc2C(C)(C)[C@@H]1CC3)C(=O)O` [Compound 5, (S,Z)-6-((1S,3aS,5aR,10aS,12aS)-8-Amino-3a,6,6,10a,12a-pentamethyl-2,3,3a,4,5,5a,6,10,10a,11,12,12a-dodecahydro-1H-cyclopenta[7,8]phenanthro[2,3-d]thiazol-1-yl)-2-methylhept-2-enoic Acid]: the “Cytotoxic / antiproliferative profile across the cancer cell line panel (in words)” value in data set [1] is given as “intermediate activity across multiple cell lines”. In addition, the IC50 in [2] is 19.5 ± 3.2 µM; in data set [3], greater than 50 µM; in data set [4] it was 25 ± 1.4 µM; in data set [5], 27.9 ± 2.9 µM; in data set [6], 19 ± 2 µM; in data set [7], 23.5 ± 2.4 µM. For the same compound, the IC50 in [8] worked out at 28.2 ± 1.9 µM; in data set [9], 24.5 ± 7.2 µM.
In the case of `C/C(=C/CC[C@H](C)[C@@H]1CC[C@]2(C)C3=C(CC[C@@]12C)[C@@]1(C)Cc2sc(N4CCOCC4)nc2C(C)(C)[C@@H]1CC3)C(=O)O` [Compound 7, (S,Z)-2-Methyl-6-((1S,3aS,5aR,10aS,12aS)-3a,6,6,10a,12a-pentamethyl-8-morpholino-2,3,3a,4,5,5a,6,10,10a,11,12,12a-dodecahydro-1H-cyclopenta[7,8]phenanthro[2,3-d]thiazol-1-yl)hept-2-enoic Acid], the “Cytotoxic / antiproliferative profile across the cancer cell line panel (in words)” value in data set [1] is reported as “selective cytotoxicity toward Capan-1”. For the same compound, the IC50 in data set [2] was greater than 50 µM; in [3], greater than 50 µM; in data set [4] it was greater than 50 µM; in [5], greater than 50 µM; in data set [6], greater than 50 µM; in data set [7], 26 ± 0.4 µM. For the same compound, the IC50 in data set [8] and in [9] was greater than 50 µM throughout.
For `C/C(=C/CC[C@H](C)[C@@H]1CC[C@]2(C)C3=C(CC[C@@]12C)[C@]1(C)C(CC3)C(C)(C)C(=O)O[C@@H]1O)C(=O)O` (stereo partly drawn) [Compound 9, 1α-hydroxy-3-oxa-nor-tirucalla-8,24Z-dien-26-oic acid], the IC50 was greater than 50 µM in data set [2]; greater than 50 µM in data set [3]; greater than 50 µM in data set [4]; greater than 50 µM in data set [5]; greater than 50 µM in data set [6]; 39.4 ± 1.5 µM in [7]. For the same compound, the IC50 in data set [8] and in [9] was greater than 50 µM in each case. Also, in [10], the “Cytotoxic / antiproliferative profile across the cancer cell line panel (in words)” value was “selective cytotoxicity toward Capan-1”.
`C/C(=C/CC[C@H](C)[C@@H]1CC[C@]2(C)C3=C(CC[C@@]12C)[C@@]1(C)CC(=O)C(C)(C)C1CC3)C(=O)O` (some centres unmarked) [Compound 11, 3-One-1(2→3)-abeotirucalla-8,24Z-dien-26-oic Acid]: the IC50 in [2] was 29.6 ± 8.9 µM; in data set [3], greater than 50 µM; in data set [4] it was greater than 50 µM; in data set [5], greater than 50 µM; in [6] it was 49.3 ± 0.8 µM; in data set [7], 24.6 ± 2.1 µM. Besides, the IC50 in data set [8] and in [9] was greater than 50 µM in each case. The “Cytotoxic / antiproliferative profile across the cancer cell line panel (in words)” value in data set [10] is “more limited and restricted cytotoxic profile”.
As for `COc1cc([C@@H]2c3cc4c(cc3[C@@H](O[C@@H]3O[C@@H]5CO[C@@H](C)O[C@H]5[C@H](O)[C@H]3O)[C@H]3COC(=O)[C@H]23)OCO4)cc(OC)c1O` [Etoposide, reference compound], in data set [11] (10 µM), the “Toxicity to normal PBMCs” value is “did not display toxicity”. Further, the 50% inhibitory concentration (IC50) in data set [2] is 0.3 ± 0.12 µM; in data set [3] it was 4.47 ± 0.11 µM; in data set [4] it was 0.08 ± 0.007 µM; in [5] it was 4.8 ± 0.87 µM; in data set [6] it was 0.08 ± 0.03 µM; in data set [7], 0.24 ± 0.01 µM. The results for the half-inhibitory concentration (IC50) in data set [8] and in [9] were 1.09 ± 0.19 µM and 2.36 ± 0.7 µM, respectively. Further, the “Cytotoxic / antiproliferative profile across the cancer cell line panel (in words)” value in [10] was “potent antiproliferative activity against all cancer cell lines”.
On to `C/C(=C/CC[C@H](C)[C@@H]1CC[C@]2(C)C3=C(CC[C@@]12C)[C@@]1(C)CCC(=O)C(C)(C)C1CC3)C(=O)O` (some centres unmarked) [IMNA, 24Z-isomasticadienonic acid], for which the “Effect on viability of normal PBMCs” value in data set [11] (50 µM) is “none of the analogues (compounds 3–11 and IMNA) decreased the viability”. For the same compound, the IC50 in [2] was 21.7 ± 3.1 µM; in [3] it was greater than 50 µM; in [4] it was 32.7 ± 3.2 µM; in [5], greater than 50 µM; in [6], 34.2 ± 2.5 µM; in data set [7], 26.5 ± 1.6 µM. Further, the values for the 50% inhibitory concentration (IC50) in data set [8] and in [9] were 42.3 ± 2.3 µM and greater than 50 µM, respectively. In addition, the “Cytotoxic / antiproliferative profile across the cancer cell line panel (in words)” value in [10] was “intermediate activity across multiple cell lines”.
